Key:
Sprague Dawley rats = assay: Measurement of fatigue substance in blood (creatine kinase activity in blood plasma after forced exercise); type: in vivo; conditions: 2 mg per kilogram of body weight orally twice daily, five times in total, before forced exercise stress; FIG. 4
From the text: The fourth test is measurement of an amount of fatigue substance. This is described in detail below in Example 4. The test is to determine the effect of administration of the test substance on the amount of fatigue substance at the time when physical or mental stress is applied. Since the fatigue substances change according to the type, intensity, duration, or the like of fatigue that is applied, they are not clearly defined as an indicator, but creatine kinase in blood can be named as one of the candidate substances. Creatine kinase is an enzyme that catalyzes high-energy phosphoryl group transfer from creatine phosphate to ADP, and is considered to serve physiological functions of consuming creatine phosphate to supply ATP at the time of massive energy consumption, such as twitching of skeletal muscles upon instantaneous short-term exercise, in an in vivo energy system. […] It is therefore said that the level of damage on the muscle can be determined by measuring the creatine kinase activity in blood. […]
Muscle fatigue in a living body was determined using creatine kinase levels in blood as a reference index. […] Blood was taken out from a tale vein immediately after the exercise stress, and creatine kinase activity in blood plasma was measured with a biochemistry automatic analyzer (Model 7070, Hitachi High-Technologies Corporation) using an enzyme method. […]

[1] = Safety of administered andrographolide (1000 mg per kilogram of body weight); type: in vivo; conditions: 1000 mg of andrographolide per kilogram of body weight
Description: Andrographis paniculata containing andrographolide has conventionally been taken in orally and is considered to be infinitely safe. […] It should be noted, however, that there is a report saying that, when an infusion (0.5 g per mouse) or a water extract (1 g of crude drug per mouse) of Andrographis paniculata was injected into abdominal cavities of two mice, they died within 24 hours (Chuyakudaijiten, First Issue, Vol. 3). […] Accordingly, the andrographolide in the composition of the present invention is an active ingredient that is infinitely safe. Thus the amount of andrographolide to be contained is not particularly limited, as long as the amount is adequate to produce a desired effect and not to be toxic; the amount can be appropriately determined according to targets, pathological condition and the stage of illness, impact on taste (slightly bitter), and other factors.

Structure (SMILES): C=C1CC[C@@H]2[C@](C)(CO)[C@H](O)CC[C@@]2(C)[C@@H]1C/C=C1/C(=O)OC[C@H]1O [andrographolide]
- creatine kinase activity in blood plasma (Sprague Dawley rats): decrease in creatine kinase activity was observed
- abnormality after administration [1]: no abnormality was observed

From US8507547B2, “Anti-fatigue agents and oral compositions containing andrographolide as active ingredient” (Suntory Holdings Limited, priority 2007, dated 2013)
